Assay results published in publication PMC2131780, “A Tale of Switched Functions: From Cyclooxygenase Inhibition to M-Channel Modulation in New Diphenylamine Derivatives” (PLoS ONE, 2007).

What was measured:
[1] = test system: COX enzymes (CT26 mouse colon adenocarcinoma cells); assay: COX inhibition, PGE2 production in CT26 cells; type: cell-based; conditions: for IC50: average of two experiments in triplicate, read-out: COX inhibition (IC50, µM) CT26
Source text: (§1) In addition, the aromatic rings of the diphenylamine moiety were substituted with different electron donating or withdrawing groups. In a first screen, two parameters were checked: (a) the non-selective inhibition of COX-1/COX-2 enzyme activities, measured by the production of PGE2 in cultured mouse colon adenocarcinoma (CT26) and mouse Lewis lung carcinoma cells (D122) cells; (b) the M-channel activity, measured by the heterologous coexpression of Kv7.2 and Kv7.3 subunits in Chinese hamster ovary (CHO) cells.
(§2) Mouse colon adenocarcinoma CT26 and mouse Lewis lung carcinoma D122 cells were grown in DMEM (D122) or RPMI (CT26) supplemented with 10% fetal calf serum, 4% glutamine, 1% penicillin-streptomycin-nystatin and 3% non essential amino acids (D122) and maintained in a humidified 37°C incubator with 5% CO2. For the COX assays, cells were grown onto 24 multiwell plates. Before the assay, cells were washed with serum-free medium; then tested compounds were added to the medium and incubated for 30 min at 37°C after which 30 µM arachidonic acid was added and incubated for additional 20 min. At the end of the incubations, 10 µM indomethacin was added to stop the reaction and medium was transferred to another 24 multiwell plate for measuring PGE2 production by radioimmunoassay (DuPont-NEN; Boston, MA) according to manufacturer protocol. Protein determination was assayed on scraped cells and was used to normalize the amount of PGE2 production. Assays with purified ovine COX-1 and human recombinant COX-2 were performed using the COX inhibitor screening assay (Cayman chemical company, Ann Arbor, MI), according to manufacturer protocol.

[2] = biological target: T1, Kv7.2/3 K+ channels (M-channels) (Homo sapiens, UniProt O43525+O43526); assay: Whole-cell patch-clamp of recombinant Kv7.2/3 channels in CHO cells; type: cell-based; conditions: for ΔV50 (mV), left-shift in half-activation potential: Kv7.2/3 in CHO cells; for M-channels (Kv7.2/Kv7.3) effect (opener / blocker / inactive): Kv7.2 and Kv7.3 coexpressed in CHO cells; for EC50: concentration-dependent left-shift ΔV50, sigmoidal fit, read-out: M-channel opener potency EC50
T1 construct: expressed in transfected cells; host or cells: CHO cells
T1 sequence (O43526 whole entry): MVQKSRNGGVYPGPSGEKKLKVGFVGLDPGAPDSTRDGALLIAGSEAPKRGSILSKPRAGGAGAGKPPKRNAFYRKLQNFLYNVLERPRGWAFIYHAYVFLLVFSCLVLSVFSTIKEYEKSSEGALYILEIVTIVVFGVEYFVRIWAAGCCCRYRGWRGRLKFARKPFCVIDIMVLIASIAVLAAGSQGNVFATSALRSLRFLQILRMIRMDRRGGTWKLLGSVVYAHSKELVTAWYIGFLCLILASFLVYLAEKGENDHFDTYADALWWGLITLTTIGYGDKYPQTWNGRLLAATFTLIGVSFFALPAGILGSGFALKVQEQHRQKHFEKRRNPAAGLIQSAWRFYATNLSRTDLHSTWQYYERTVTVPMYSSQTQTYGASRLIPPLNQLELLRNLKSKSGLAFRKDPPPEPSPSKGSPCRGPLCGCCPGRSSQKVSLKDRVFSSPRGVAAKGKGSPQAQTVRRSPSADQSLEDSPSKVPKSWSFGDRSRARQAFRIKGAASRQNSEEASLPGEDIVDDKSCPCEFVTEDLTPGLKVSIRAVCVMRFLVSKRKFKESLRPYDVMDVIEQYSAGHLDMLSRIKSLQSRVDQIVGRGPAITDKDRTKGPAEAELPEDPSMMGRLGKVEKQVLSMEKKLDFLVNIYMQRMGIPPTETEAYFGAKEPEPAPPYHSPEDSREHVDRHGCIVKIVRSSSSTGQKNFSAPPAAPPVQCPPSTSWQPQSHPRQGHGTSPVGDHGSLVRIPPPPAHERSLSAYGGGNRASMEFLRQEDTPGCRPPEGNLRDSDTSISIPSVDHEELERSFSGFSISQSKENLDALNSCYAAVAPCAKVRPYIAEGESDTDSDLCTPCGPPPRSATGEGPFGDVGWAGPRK
T1 sequence (O43525 whole entry): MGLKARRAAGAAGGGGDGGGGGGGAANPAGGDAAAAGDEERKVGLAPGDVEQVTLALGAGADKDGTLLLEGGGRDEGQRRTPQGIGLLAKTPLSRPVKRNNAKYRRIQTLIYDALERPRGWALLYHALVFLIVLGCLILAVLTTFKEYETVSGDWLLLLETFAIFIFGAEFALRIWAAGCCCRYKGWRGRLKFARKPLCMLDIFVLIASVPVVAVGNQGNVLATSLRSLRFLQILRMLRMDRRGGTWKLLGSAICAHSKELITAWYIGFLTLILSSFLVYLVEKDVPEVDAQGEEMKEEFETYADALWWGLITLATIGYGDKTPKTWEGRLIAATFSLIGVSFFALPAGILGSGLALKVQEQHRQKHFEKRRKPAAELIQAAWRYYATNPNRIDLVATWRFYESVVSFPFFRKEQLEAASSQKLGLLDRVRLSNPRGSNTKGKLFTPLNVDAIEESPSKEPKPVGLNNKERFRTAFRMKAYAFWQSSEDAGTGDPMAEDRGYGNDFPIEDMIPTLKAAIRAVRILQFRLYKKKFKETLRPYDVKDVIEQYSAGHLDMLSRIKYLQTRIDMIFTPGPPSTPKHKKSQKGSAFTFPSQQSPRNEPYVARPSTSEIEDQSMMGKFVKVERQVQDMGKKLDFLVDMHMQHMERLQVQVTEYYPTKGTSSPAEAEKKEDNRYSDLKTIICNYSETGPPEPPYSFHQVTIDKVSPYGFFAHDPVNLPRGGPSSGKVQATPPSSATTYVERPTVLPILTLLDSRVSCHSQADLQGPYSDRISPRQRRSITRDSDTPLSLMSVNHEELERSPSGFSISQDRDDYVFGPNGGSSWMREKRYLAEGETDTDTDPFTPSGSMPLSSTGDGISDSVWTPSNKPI
Description: Chinese hamster ovary (CHO) cells were grown in Dulbecco's modified Eagle's medium (DMEM) supplemented with 2 mM glutamine, 10% fetal calf serum and antibiotics. Briefly, 40,000 cells seeded on poly-D-lysine-coated glass coverslips (13 mm diameter) in a 24-multiwell plate were transfected with pIRES-CD8 (0.5 µg) as a marker for transfection, and with Kv7.2 (0.5 µg) and Kv7.3 (0.5 µg). For electrophysiology, transfected cells were visualized approximately 40 hours following transfection, using anti-CD8 antibody-coated beads. Transfection was performed using Fugene 6 (Roche, Indianapolis IN, USA) according to the manufacturer's protocol.
Voltage-clamp recordings in CHO cells were performed, using the whole-cell configuration of the patch-clamp technique. Signals were amplified using an Axopatch 200B patch-clamp amplifier (Molecular Devices, Sunnyvale, CA), sampled at 2 kHz and filtered at 800 Hz via a 4-pole Bessel low pass filter. […] The patch pipettes were pulled from borosilicate glass (Warner Instrument Corp, USA) with a resistance of 2–5 MΩ. For K^+ current recordings in CHO cells, the intracellular pipette solution contained (in mM): 130 KCl, 1 MgCl2, 5 K2ATP, 5 EGTA, 10 HEPES, adjusted with KOH to pH 7.4 (290 mOsm). The extracellular solution contained (in mM): 140 NaCl, 4 KCl, 1.8 CaCl2, 1.2 MgCl2, 11 glucose, 5.5 HEPES, adjusted with NaOH to pH 7.4 (310 mOsm). Series resistances (3–13 MΩ) were compensated (75–90%) and periodically monitored.
Data analysis was performed using the Clampfit program (pClamp 9.2, Molecular Devices), Microsoft Excel (Microsoft) and Prism 4.0 (GraphPad). Chord conductance (G) was calculated by using the following equation: [drawing 1] where I corresponds to the current amplitude measured at the end of the pulse and Vrev, the calculated reversal potential. G was estimated at various test voltages V and then, normalized to a maximal conductance value, Gmax. Activation curves were fitted by one Boltzmann distribution: [drawing 2] where V50 is the voltage at which the current is half-activated and s is the slope factor. All data were expressed as mean±SEM. Statistically significant differences were assessed by Student's t-test. Analysis of sEPSCs and sIPSCs was done using the Clampfit program (pClamp 9.2, Molecular Devices) and included evaluation of the individual events as well as the average event amplitude and the integral of the event (total charge transfer).

[3] = test system: COX enzymes (D122 mouse Lewis lung carcinoma cells); assay: COX inhibition, PGE2 production in D122 cells; type: cell-based; conditions: average of two experiments in triplicate
Source text: as §1, §2

[4] = test system: MES-induced tonic hind limb extension; assay: Maximal electroshock seizure (MES) model; type: in vivo, mouse; conditions: mice, intraperitoneal, 30 min before electroshock; not shown
Description: This test is generally thought to be a model of generalized tonic-clonic seizure in human.
The anti-convulsant effect was measured by the maximal electroshock seizure model (MES) in ICR mice as previously described. The procedures followed for experimentation and maintenance of the animals were approved by the animal research ethics committee of Tel Aviv University and in accordance with the Guide for the Care and Use of Laboratory Animals (1996, National Academy of Sciences, Washington DC). Briefly, maximal electroshock was induced in adult mice by means of two transcorneal electrodes delivering an alternative current of 50 mA at 60 Hz for 0.2 sec using rodent shocker (Hugo Sachs Electronik, type 221). […] The drugs dissolved in 0.9% saline were administered intraperitoneally 30 min before the electroshock was performed. Animals failing to show tonic hind limb extension were scored as protected and were expressed in percentage.

SMILES | M-channels (Kv7.2/Kv7.3) effect (opener / blocker / inactive) [2] | EC50 [2] [µM] | also measured
O=C(Cc1cc([N+](=O)[O-])ccc1Nc1c(Cl)cccc1Cl)NCCO [Compound 7] | opener | 17 | effect on COX activity (Figure 1) [1]: completely unaffected; IC50 [1]: > 50 µM; ΔV50 (mV), left-shift in half-activation potential [2]: −12.2 mV; IC50 [3]: > 50 µM
COc1ccc2cc([C@H](C)C(=O)O)ccc2c1 [naproxen, reference compound] | do not activate | – | –
CC(C(=O)O)c1ccc(-c2ccccc2)c(F)c1 (stereo not shown) [flurbiprofen, reference compound] | do not activate | – | –
O=C(O)Cc1ccccc1Nc1c(Cl)cccc1Cl [Diclofenac, reference compound] | opener | 2.6 | IC50 [1]: 0.003 µM; M-channels (Kv7.2/Kv7.3) effect (opener / blocker / inactive) ([2]; listed as diclofenac): openers; IC50 [3]: 0.1 µM
Cc1cccc(Nc2ccccc2C(=O)O)c1C [mefenamate, reference compound] | openers | – | –
Cc1ccc(Cl)c(Nc2ccccc2C(=O)O)c1Cl [Meclofenamic acid, reference compound] | opener | 25 | ΔV50 (mV), left-shift in half-activation potential [2]: −22.7 mV; M-channels (Kv7.2/Kv7.3) effect (opener / blocker / inactive) ([2]; listed as meclofenamate): openers
CC(C(=O)O)c1cccc(Oc2ccccc2)c1 (stereo not shown) [fenoprofen, reference compound] | do not activate | – | –
O=C(O)c1ccccc1Nc1cccc(C(F)(F)F)c1 [flufenamate, reference compound] | openers | – | –
O=C1NC(=O)C(c2ccccc2)(c2ccccc2)N1 [phenytoin] | – | – | dose that fully prevented hind limb extension [4]: 20 mg/kg
CCCC(CCC)C(=O)O [sodium valproate] | – | – | dose that fully prevented hind limb extension [4]: 500 mg/kg
